Test results from US5834259A, “Process and composition for preparing D-aspartic acid” (Monsanto Company, priority 1996, dated 1998).

Legend:
[1] = target: T1, L-aspartate-α-decarboxylase (Escherichia coli, UniProt P0A790); experiment: 1.0M D/L-aspartate, 100 g/l cells, reaction A (Example 6); type: biochemical, E. coli K12; details: for concentration in supernatant fluid: 1.0M, 100 g/l cells, 37° C.
T1 construct: expressed in transfected cells; host or cells: E. coli W3110 transformed with pIF309 = strain NS3291 (ATCC 98675), whole cells
Protocol: 1.0M D/L-aspartate was tested as a substrate for two enzyme cell loads, 100 g/l cells, referred to here as reaction "A", and 50 g/l cells, referred to here as reaction "B".
133.1 g of D/L-aspartic acid was dissolved in approximately 600 ml deionized H2 O and pH was adjusted to 7.0 with NaOH, using 100 ml of 10N NaOH and a small amount of 1.0N NaOH. The substrate for reaction A was brought to 963 ml with deionized H2 O. The reaction was started with 137 ml cells that were stored in the cold room. For reaction B, the substrate was brought to a volume of 981.5 ml. The reaction was started with […] cells.
Both reactions were carried out in 2 L fermentors at pH 7.0 without constant adjustments and at 37° C. Samples were removed over time, centrifuged and the supernatant fluid was diluted and submitted for D- and L-aspartic acid HPLC analysis.

[2] = target: T1, L-aspartate-α-decarboxylase; experiment: Activity towards D/L-glutamate and D/L-alanine, D/L-aspartate as control (Example 8); type: biochemical, E. coli K12; details: for concentration in supernatant fluid / percent remaining: racemate substrate, pH 7.0
Protocol: D/L-aspartate was run as a control.
Substrates were prepared by dissolving solid amino acid racemate in approximately 75 ml deionized H2 O and adjusting the pH to 7.0 with 10N NaOH. The volume was then brought to 100 ml with deionized H2 O. The cells used were stored frozen for about 1 month and then thawed and stored in a refrigerator for about 1 month prior to running the experiments.
The reaction was run the same as described in the prior Examples. Samples of supernatant fluid, approximately 0.20 ml, were removed over time, centrifuged and stored frozen before analysis by HPLC as described in the prior Examples.

Compound | concentration in supernatant fluid ([1]; 0.0000 hr) [mg/mL] | concentration in supernatant fluid ([1]; 2.0000 hr) [mg/mL] | concentration in supernatant fluid ([1]; 4.5000 hr) [mg/mL] | concentration in supernatant fluid ([1]; 7.0000 hr) [mg/mL] | concentration in supernatant fluid ([1]; 22.500 hr) [mg/mL] | concentration in supernatant fluid ([1]; 24.000 hr) [mg/mL] | concentration in supernatant fluid ([1]; 31.000 hr) [mg/mL] | concentration in supernatant fluid ([1]; 37.500 hr) [mg/mL] | concentration in supernatant fluid ([1]; 47.000 hr) [mg/mL] | concentration in supernatant fluid ([1]; 50.500 hr) [mg/mL] | concentration in supernatant fluid ([1]; 53.800 hr) [mg/mL] | concentration in supernatant fluid ([1]; 58.000 hr) [mg/mL] | concentration in supernatant fluid ([1]; 70.000 hr) [mg/mL] | concentration in supernatant fluid ([1]; 72.000 hr) [mg/mL] | concentration in supernatant fluid ([2]; 0 hr) [mg/mL] | concentration in supernatant fluid ([2]; 3.5 hr) [mg/mL] | percent remaining ([2]; 3.5 hr) [%] | concentration in supernatant fluid ([2]; 8.5 hr) [mg/mL] | percent remaining ([2]; 8.5 hr) [%] | concentration in supernatant fluid ([2]; 24 hr) [mg/mL] | other results
N[C@H](CC(=O)O)C(=O)O [D-Asp, D-aspartic acid] | 53.600 | 50.680 | 44.920 | 42.260 | 35.680 | 34.420 | 32.660 | 27.950 | 20.710 | 18.490 | 13.730 | 13.410 | 6.1300 | 5.3900 | 29.890 | 29.850 | 99.866 | 29.900 | 100.03 | 29.740 | percent remaining ([2]; 24 hr): 99.498%; concentration in supernatant fluid ([2]; 55 hr): 30.120 mg/mL; percent remaining ([2]; 55 hr): 100.77%
N[C@@H](CC(=O)O)C(=O)O [L-Asp, L-aspartic acid] | 54.850 | 49.340 | 50.710 | 50.230 | 54.490 | 50.780 | 51.450 | 53.850 | 52.370 | 51.080 | 46.500 | 50.040 | 52.400 | 50.430 | 26.810 | 14.050 | 52.406 | 12.660 | 47.221 | 9.4700 | concentration in supernatant fluid ([1]; 0.0000 hr, listed as L-aspartate): 53.6 mg/mL; concentration in supernatant fluid ([1]; 72.000 hr, listed as L-aspartate): 5.39 mg/mL; reduction of L-aspartate ([1]; after 72.0 hours, 1.0M substrate): 90%; substrate specificity of the enzyme [2]: the only substrate for the enzyme; percent remaining ([2]; 24 hr): 35.323%; concentration in supernatant fluid ([2]; 55 hr): 0.3300 mg/mL; percent remaining ([2]; 55 hr, 3300 min): 1.2309%; percent remaining ([2]; 55 hr, listed as L-aspartic acid, 3300 min): 1.23%
